From patent publication US6969616B2 (Kaneka Corporation, priority 2000, dated 2005)

Tested on: enterotoxins
Format: binding, Staphylococcus aureus

`CCCCCCCCN` [n-octylamine] was tested, and the “adsorptive affinity for enterotoxins” value was “phenomenal increase in the adsorptive affinity for enterotoxins”.
